According to patent US5932410A, “Assay for the detection of proteases” (Commonwealth Scientific and Industrial Research …, priority 1994, dated 1999):
Where a SMILES comes first, the peptide text is derived from it. The star is where a group is joined. Cbz = O=C(OCc1ccccc1)*

Experiments:
Format in all cases: biochemical
Thrombin = Thrombin (Homo sapiens, UniProt P00734); test: Esterase assay, thrombin; details: Z-AX-OMe substrate; for Esterase rate, Thrombin: X = P1 residue, rates approximately ± 10%; for % of maximum activity, Thrombin: percentage of the maximum activity
Source text: (§1) Advantage was taken of this activity to develop an "esterase" assay which uses a pH indicator to visualise the hydrogen ion release caused by the action of proteases on peptide-ester substrates. A series of twenty compounds of the form, carbobenzoxy alanyl-X-methyl ester (Z-AX-OMe) were synthesised where "X" is one of the naturally occurring amino acids. These substrates were used in a 96 well microtitre plate assay to screen each mutant enzyme for activity and specificity. The reactions were followed visually or quantified using a standard ELISA plate reader. The esterase assay, using trypsin as a test enzyme and Z-Ala-Arg-OMe as substrate, was more sensitive as than traditional trypsin substrates (three times the rate obtained with benzoyl arginine ethyl aster and twenty times the rate of benzoyl arginine p-nitroanilide) (Whittaker et al., Analytical Biochemistry, 220, 238-243, 1994).
(§2) The present inventors produced a panel of substrates carbobenzoxy alanyl-X-methyl eater (Z-AX-OMe) where X is one of the naturally occurring amino acids. The reactivity of these substrates with a number of serine proteases is set out in Table 1 and FIG. 1.
(§3) Rates are A580 change/min./mg protease. Rates are also shown as a […]

Subtilisin = test: Esterase assay, subtilisin; details: Z-AX-OMe substrate; for Esterase rate, Subtilisin: X = P1 residue, rates approximately ± 10%; for % of maximum activity, Subtilisin: percentage of the maximum activity
Source text: as §1, §2, §3

Proteinase K = Proteinase K (Parengyodontium album, UniProt P06873); test: Esterase assay, proteinase K; details: Z-AX-OMe substrate; for Esterase rate, Proteinase K: X = P1 residue, rates approximately ± 10%; for % of maximum activity, Proteinase K: percentage of the maximum activity
Proteinase K, sequence (P06873 106-384): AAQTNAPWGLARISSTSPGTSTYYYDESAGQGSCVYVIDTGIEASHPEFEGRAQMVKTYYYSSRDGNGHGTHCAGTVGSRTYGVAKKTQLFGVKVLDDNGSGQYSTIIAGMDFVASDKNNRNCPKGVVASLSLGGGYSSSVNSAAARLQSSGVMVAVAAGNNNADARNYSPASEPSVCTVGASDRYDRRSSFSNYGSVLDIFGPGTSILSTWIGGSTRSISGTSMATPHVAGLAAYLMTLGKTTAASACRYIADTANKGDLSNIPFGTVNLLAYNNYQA
Source text: as §1, §2, §3

α-Lytic protease = α-Lytic protease (Lysobacter enzymogenes, UniProt P00778); test: Esterase assay, α-lytic protease; details: Z-AX-OMe substrate; for Esterase rate, α-Lytic protease: X = P1 residue, rates approximately ± 10%; for % activity, α-Lytic protease: normalised to alanine
α-Lytic protease, sequence (P00778 25-397 limits assumed): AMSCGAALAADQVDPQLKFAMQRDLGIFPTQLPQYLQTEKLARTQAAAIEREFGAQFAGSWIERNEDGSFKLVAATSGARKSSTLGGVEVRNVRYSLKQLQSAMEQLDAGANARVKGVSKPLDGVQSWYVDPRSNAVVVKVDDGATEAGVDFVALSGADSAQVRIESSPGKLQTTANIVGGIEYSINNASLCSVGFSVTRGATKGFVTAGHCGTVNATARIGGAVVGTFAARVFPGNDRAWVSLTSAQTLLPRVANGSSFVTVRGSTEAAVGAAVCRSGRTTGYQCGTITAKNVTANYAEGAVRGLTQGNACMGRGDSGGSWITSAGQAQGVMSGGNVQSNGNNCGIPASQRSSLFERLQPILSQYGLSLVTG
Source text: as §1, §2, §3

Chymotrypsin = Chymotrypsin (Bos taurus, UniProt P00766); test: Esterase assay, chymotrypsin; details: Z-AX-OMe substrate; for Esterase rate, Chymotrypsin: X = P1 residue, rates approximately ± 10%; for % of maximum activity, Chymotrypsin: percentage of the maximum activity
Source text: as §1, §2, §3

Elastase = Elastase (Sus scrofa, UniProt P00772); test: Esterase assay, elastase; details: Z-AX-OMe substrate; for Esterase rate, Elastase: X = P1 residue, rates approximately ± 10%; for % activity, Elastase: normalised to alanine
Elastase, sequence (P00772 27-266): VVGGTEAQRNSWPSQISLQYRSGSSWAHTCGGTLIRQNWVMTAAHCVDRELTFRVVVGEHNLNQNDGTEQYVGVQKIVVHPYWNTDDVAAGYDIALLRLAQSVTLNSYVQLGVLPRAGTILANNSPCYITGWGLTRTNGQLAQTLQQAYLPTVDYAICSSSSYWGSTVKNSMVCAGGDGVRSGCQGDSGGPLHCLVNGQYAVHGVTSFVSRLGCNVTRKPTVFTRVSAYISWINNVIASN
Source text: as §1, §2, §3

Trypsin = test: Esterase assay, trypsin; details: Z-AX-OMe substrate; for Esterase rate, Trypsin: X = P1 residue, rates approximately ± 10%; for % of maximum activity, Trypsin: percentage of the maximum activity
Source text: as §1, §2, §3

Row | Compound | Esterase rate, Thrombin (Thrombin) | % of maximum activity, Thrombin (Thrombin) [%] | Esterase rate, Subtilisin (Subtilisin) | % of maximum activity, Subtilisin (Subtilisin) [%] | Esterase rate, Proteinase K (Proteinase K) | % of maximum activity, Proteinase K (Proteinase K) [%] | Esterase rate, α-Lytic protease (α-Lytic protease) | % activity, α-Lytic protease (α-Lytic protease) [%] | Esterase rate, Chymotrypsin (Chymotrypsin) | % of maximum activity, Chymotrypsin (Chymotrypsin) [%] | Esterase rate, Elastase (Elastase) | % activity, Elastase (Elastase) [%] | Esterase rate, Trypsin (Trypsin) | % of maximum activity, Trypsin (Trypsin) [%]
1 | COC(=O)[C@H](CCC(=O)O)NC(=O)[C@H](C)NC(=O)OCc1ccccc1 [Glu] (Cbz-Ala-Glu-OMe) | 0 A580 change/min./mg protease | 0 | 83 A580 change/min./mg protease | 3.9 | 97 A580 change/min./mg protease | 12.5 | 0 A580 change/min./mg protease | 0 | 0 A580 change/min./mg protease | 0 | 0 A580 change/min./mg protease | 0 | 0 A580 change/min./mg protease | 0
2 | COC(=O)[C@H](CCC(N)=O)NC(=O)[C@H](C)NC(=O)OCc1ccccc1 [Gln] (Cbz-Ala-Gln-OMe) | 0 A580 change/min./mg protease | 0 | 1308 A580 change/min./mg protease | 60.9 | 553 A580 change/min./mg protease | 71.4 | 0 A580 change/min./mg protease | 0 | 0.5 A580 change/min./mg protease | 0.9 | 0 A580 change/min./mg protease | 0 | 0 A580 change/min./mg protease | 0
3 | COC(=O)[C@H](C)NC(=O)[C@H](C)NC(=O)OCc1ccccc1 [Ala] (Cbz-Ala-Ala-OMe) | 0 A580 change/min./mg protease | 0 | 1536 A580 change/min./mg protease | 73.8 | 775 A580 change/min./mg protease | 100 | 6.2 A580 change/min./mg protease | 100 | trace | – | 15.7 A580 change/min./mg protease | 100 | 0 A580 change/min./mg protease | 0
4 | COC(=O)[C@H](CC(=O)O)NC(=O)[C@H](C)NC(=O)OCc1ccccc1 [Asp] (Cbz-Ala-Asp-OMe) | 0 A580 change/min./mg protease | 0 | trace | – | 18 A580 change/min./mg protease | 2.3 | 0 A580 change/min./mg protease | 0 | 0 A580 change/min./mg protease | 0 | 0 A580 change/min./mg protease | 0 | 0 A580 change/min./mg protease | 0
5 | COC(=O)[C@H](Cc1cnc[nH]1)NC(=O)[C@H](C)NC(=O)OCc1ccccc1 [His] (Cbz-Ala-His-OMe) | trace | – | 249 A580 change/min./mg protease | 11.6 | 203 A580 change/min./mg protease | 26.2 | 0 A580 change/min./mg protease | 0 | 1.5 A580 change/min./mg protease | 2.7 | 0 A580 change/min./mg protease | 0 | 3.0 A580 change/min./mg protease | 0.8
6 | COC(=O)[C@H](CCSC)NC(=O)[C@H](C)NC(=O)OCc1ccccc1 [Met] (Cbz-Ala-Met-OMe) | 0 A580 change/min./mg protease | 0 | 2149 A580 change/min./mg protease | 100 | 525 A580 change/min./mg protease | 67.7 | 2.0 A580 change/min./mg protease | 32.3 | 6.6 A580 change/min./mg protease | 12.0 | trace | – | 0 A580 change/min./mg protease | 0
7 | COC(=O)[C@H](CS)NC(=O)[C@H](C)NC(=O)OCc1ccccc1 [Cys] (Cbz-Ala-Cys-OMe) | 0 A580 change/min./mg protease | 0 | 1251 A580 change/min./mg protease | 58.2 | 392 A580 change/min./mg protease | 50.6 | 8.5 A580 change/min./mg protease | 137.1 | 0.4 A580 change/min./mg protease | 0.7 | 86.1 A580 change/min./mg protease | 548.4 | 0 A580 change/min./mg protease | 0
8 | COC(=O)[C@@H](NC(=O)[C@H](C)NC(=O)OCc1ccccc1)C(C)C [Val] (Cbz-Ala-Val-OMe) | 0 A580 change/min./mg protease | 0 | 35 A580 change/min./mg protease | 1.6 | 97 A580 change/min./mg protease | 12.5 | 1.3 A580 change/min./mg protease | 21.0 | 0 A580 change/min./mg protease | 0 | 2.1 A580 change/min./mg protease | 13.4 | 0 A580 change/min./mg protease | 0
9 | COC(=O)[C@H](Cc1ccccc1)NC(=O)[C@H](C)NC(=O)OCc1ccccc1 [Phe] | 0 A580 change/min./mg protease | 0 | 998 A580 change/min./mg protease | 46.0 | 342 A580 change/min./mg protease | 44.1 | 0 A580 change/min./mg protease | 0 | 37.8 A580 change/min./mg protease | 68.5 | 0 A580 change/min./mg protease | 0 | 2.9 A580 change/min./mg protease | 0.8
